Source: patent publication US11692212B2, “Diagnosis and treatment of invasive aspergillosis” (The Brigham and Women's Hospital, Inc., priority 2014, dated 2023)
Starred links: 1 amine or outer side, 2 acyl side, 3 side chain; linkers in the order of their positions; H or OH if unused. Positions of bridges follow the written chain, without caps; N, C: chain ends. Non-standard residues stand in square brackets, D forms with d. Residues, ends and D or L forms follow the SMILES beside them. *: point of attachment. hTyr(3S-OH,4S-OH,3'-OSO3H) = N[C@H](C(=O)O)[C@H](O)[C@@H](O)c1ccc(O)c(OS(=O)(=O)O)c1; Orn(4R-OH,5R-OH) = O=C([C@H](C[C@@H](O)[C@@H](O)N[*:3])N[*:1])[*:2]; Pro(3S-OH,4S-Me) = C[C@H]1CN[C@H](C(=O)O)[C@H]1O; X1 = CCCCCOc1ccc(-c2cc(-c3ccc(C(=O)*)cc3)no2)cc1; Gln(3R-OH) = NC(=O)C[C@@H](O)[C@H](N)C(=O)O; Hyp = O=C(O)[C@@H]1C[C@@H](O)CN1

Experiments:
[1] = test system: A. fumigatus Af293 and A1163; assay: A. fumigatus volatome response to antifungal drug exposure, headspace TD-GC-MS (Example 2); assay type: cell-based, Aspergillus fumigatus; conditions: 1.0 μg/mL; for all volatile metabolites 36 hours later: 36 hours after the 12-hour sampling
Procedure: We assessed whether we could modulate the A. fumigatus VOC metabolome with voriconazole, micafungin, and liposomal amphotericin B antifungal drug exposure, as described online (Methods). Headspace volatile metabolites of A. terreus, A. flavus, A. niger, and A. calidoustus were characterized as outlined above, in YPD broth at 96 hours.
Assessment of the A. fumigatus volatome response to antifungal drug exposure: For an assessment of A. fumigatus VOC response to antifungal drug exposure, 10^4A. fumigatus Af293 and A1163 conidia were inoculated into YPD broth and incubated at 37° C. at 250 rpm for 48 hours, then exposed to an inhibitory dose (1.0 μg/mL) of voriconazole (Pfizer Inc., New York, N.Y.), micafungin, liposomal amphotericin (both Astellas Pharma US, Inc., Northbrook, Ill.), or no antifungal therapy for 12 hours, in 4 technical replicates, with matched media controls exposed to the same conditions. VOCs in the headspace of each vial were extracted onto thermal desorption tubes. The cultures and media samples were incubated at 37° C. at 250 rpm for another 36 hours, with repeat extraction of the headspace gas onto thermal desorption tubes.
For both in vitro culture headspace extractions and patient breath samples, VOCs were thermally desorbed onto an automated thermal desorption unit (TD-100, Markes International) at 290° C. for 20 minutes with helium carrier gas at a flow rate of 40 mL per minute and concentrated onto a Unity2/TD-100 cold trap (U-15ATA-2S, Markes International). The cold trap was rapidly heated to 270° C. to deliver adsorbed VOCs (3.5:1 split) to a VF624 capillary column (30 m×0.32 mm, 6% cyanopropyl/phenyl, 94% polydimethylsiloxane, film thickness 1.8 μm, Agilent Technologies, Santa Clara, Calif.) with a gas chromatograph (GC) inlet temperature of 250° C. VOCs delivered to the capillary column were separated using a GC temperature program of 40° C. for 3 minutes, raised to 70° C. at a rate of 5° C. per minute and held for 3 minutes, raised to 203° C. at 7° C. per minute and held for 4 minutes, then rapidly raised to 270° C. and held for 5 minutes. A single quadrupole mass spectrometry (MS) detector (Agilent 5975, Agilent Technologies, Santa Clara, Calif.) was used to analyze and identify VOCs, with a MS source temperature of 230° C., MS quad temperature of 150° C., and an electron ionization parameter of […]. A mass range m/z 40-400 was measured with a threshold of 150.
We assessed whether we could modulate the A. fumigatus VOC metabolome with voriconazole, micafungin, and liposomal amphotericin B antifungal drug exposure. […]

[2] = test system: Aspergillus fumigatus; assay: Antifungal exposure of 48-hour hyphal cultures, headspace VOC release by GC-MS (Example 1); assay type: cell-based; design: increase in some of the key A. fumigatus VOC features / change of key A. fumigatus VOC features at 24 hours: dose or concentration left out as unconfirmed; conditions: for change of key A. fumigatus VOC features at 24 hours: vs matched controls
Procedure: For each experiment, 10^4 conidia were inoculated into 5 mL of microbial media (either nutrient Yeast Extract Peptone Dextrose (YPD) broth, nutrient poor Aspergillus minimal media (Pontecorvo et al., Advan Genet 1953; 5:141-238), or under iron-starved, alkaline stress, or nitrogen-depleted conditions (McDonagh et al., PLoS Pathog 2008; 4:e1000154)) in 20 mL glass vials with an airtight crimp top incorporating a rubber septum. Cultures were incubated for 24-144 hours at 200 rpm and 37° C. and headspace gas was dynamically adsorbed, using argon carrier gas and an air sampling pump calibrated to 20 mL/minute, onto Markes thermal desorption traps containing tandem beds of Tenax TA (200 mg), Carbograph 1 TD (100 mg), and Carboxen 1003 (100 mg), optimized to retain VOCs of diverse size and polarity.
Headspace VOCs were also collected after exposure of a subset of fungal isolates to the antifungal drugs voriconazole, liposomal amphotericin B, and micafungin, each at a concentration of […].
VOCs were desorbed onto a dual GC-MS/DMS system (FIG. 1)—the eluent from the gas chromatograph was split between the MS, to allow identification of each compound, and the DMS, an extremely sensitive and selective gas detector that can be easily used as a point-of-care gas detection device, to determine the mobility pattern for each compound. The NIST MS Search 2.0 Library was used to identify VOCs in the total ion chromatogram (TIC) of the GC-MS data. Differences in spectral features of DMS output were visually distinguished between the positive ion spectra of A. fumigatus and A. terreus and principal component analysis (PCA) was used to evaluate the degree of class discrimination between these fungal species using algorithms in MATLAB (Version R2012a).
Whether exposure to antifungal drugs might modulate VOC release in Aspergillus fumigatus was assessed in vitro.

[3] = test system: A. terreus isolates; conditions: Baddley et al. 2009; cited from earlier work
[4] = drug added to 48-hour hyphal cultures, after 24 hours

For C[C@@H](c1ncncc1F)[C@](O)(Cn1cncn1)c1ccc(F)cc1F [voriconazole], the “primary metabolite, monoterpene, and sesquiterpene production” value ([1]; 12 hours of exposure) was “reduced”, the “all volatile metabolites 36 hours later” value [1] was “attenuation” and the “change of key A. fumigatus VOC features at 24 hours” value [2, 4] was “near-complete attenuation”.

In the case of CCCCCOc1ccc(-c2cc(-c3ccc(C(=O)N[C@H]4C[C@@H](O)[C@@H](O)NC(=O)[C@@H]5[C@@H](O)[C@@H](C)CN5C(=O)[C@H]([C@H](O)CC(N)=O)NC(=O)[C@H]([C@H](O)[C@@H](O)c5ccc(O)c(OS(=O)(=O)O)c5)NC(=O)[C@@H]5C[C@@H](O)CN5C(=O)[C@H]([C@@H](C)O)NC4=O)cc3)no2)cc1 [micafungin] (X1-[Orn(4R-OH,5R-OH)]T[Hyp][hTyr(3S-OH,4S-OH,3'-OSO3H)][Gln(3R-OH)][Pro(3S-OH,4S-Me)]; lactam 1-C), the “β-trans-bergamotene increase from baseline” value ([1]; 12 hours of exposure, 48-hour hyphae in YPD broth) is reported as 10 fold, the “all volatile metabolites 36 hours later” value [1] is reported as “near-complete attenuation” and the “increase in some of the key A. fumigatus VOC features” value ([2]; drug added to 48-hour hyphal cultures, after 24 hours, vs matched control samples without drug) is reported as at most 17 fold. For the same compound, the “change of key A. fumigatus VOC features at 24 hours” value [2, 4] was “initial increase” and the “change of key A. fumigatus VOC features with longer incubation” value ([2]; longer duration of incubation and hyphal death) was “attenuation”.

In the case of C[C@@H]1[C@H](O)[C@@H](C)/C=C/C=C/C=C/C=C/C=C/C=C/C=C/[C@H](O[C@@H]2O[C@H](C)[C@@H](O)[C@H](N)[C@@H]2O)C[C@@H]2O[C@](O)(C[C@@H](O)C[C@@H](O)[C@H](O)CC[C@@H](O)C[C@@H](O)CC(=O)O[C@H]1C)C[C@H](O)[C@H]2C(=O)O [AMB, amphotericin B], the “susceptibility of some A. terreus isolates” value [3] is given as “resistant”.
